Data from article PMC6880192, “Structure–Effect Relationships of Novel Semi-Synthetic Cannabinoid Derivatives” (Frontiers in Pharmacology, 2019).

Columns and labels:
CB1-/CB2-receptors = system: CB1-/CB2-receptors; parameters: method as in Rosenthaler et al. 2014; conditions: ref Rosenthaler et al. 2014; cited from earlier work
CB2-receptor [1] = target: T1, CB2-receptor (Homo sapiens, UniProt P34972); assay: Competition binding against [3H]-CP55940, CB2 membranes; conditions: ratio of Ki values
T1 construct: expressed in transfected cells; host or cells: CHO cells, stably transfected with CB2 cDNA (from IMIBIC) and transiently with CRE-luc
T1 sequence (P34972 whole entry): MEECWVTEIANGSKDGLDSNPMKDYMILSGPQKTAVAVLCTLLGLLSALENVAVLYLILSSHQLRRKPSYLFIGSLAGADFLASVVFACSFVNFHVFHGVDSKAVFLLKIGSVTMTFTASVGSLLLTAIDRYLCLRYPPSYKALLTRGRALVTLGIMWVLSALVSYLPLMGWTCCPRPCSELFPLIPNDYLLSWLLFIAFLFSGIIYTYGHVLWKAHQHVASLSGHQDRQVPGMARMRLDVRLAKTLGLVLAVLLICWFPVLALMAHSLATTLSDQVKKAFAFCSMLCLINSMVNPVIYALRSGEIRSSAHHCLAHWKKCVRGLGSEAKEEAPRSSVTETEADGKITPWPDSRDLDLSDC

CB1-receptor = target: T2, CB1-receptor (Homo sapiens, UniProt P21554); assay: cAMP-dependent luciferase assay in CHO-CB1-CRE-luc cells; type: cell-based; conditions: CHO-CB1-CRE-luc, summary classification
T2 construct: expressed in transfected cells; host or cells: CHO cells, stably transfected with CB1 cDNA (from IMIBIC) and transiently with CRE-luc
T2 sequence (P21554 whole entry): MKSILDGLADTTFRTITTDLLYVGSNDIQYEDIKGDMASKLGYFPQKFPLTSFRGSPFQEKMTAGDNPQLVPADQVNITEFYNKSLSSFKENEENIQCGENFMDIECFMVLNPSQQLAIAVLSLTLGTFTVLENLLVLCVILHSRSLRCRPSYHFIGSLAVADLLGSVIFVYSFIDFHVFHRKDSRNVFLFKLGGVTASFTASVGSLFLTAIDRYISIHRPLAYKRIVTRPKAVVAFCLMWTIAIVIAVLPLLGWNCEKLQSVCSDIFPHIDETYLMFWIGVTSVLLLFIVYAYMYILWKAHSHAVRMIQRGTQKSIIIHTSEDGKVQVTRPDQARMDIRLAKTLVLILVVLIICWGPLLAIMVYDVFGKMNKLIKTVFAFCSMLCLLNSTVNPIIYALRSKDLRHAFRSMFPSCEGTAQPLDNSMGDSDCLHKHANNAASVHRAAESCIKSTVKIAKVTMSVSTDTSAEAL
Description: (§1) Briefly, CHO cells were stably transfected with CB1- and CB2-receptor complementary DNAs (cDNAs) (kindly provided by IMIBIC). Around 10^5 transfected cells per milliliter were seeded in 24-well plates and transiently transfected with the plasmid CRE-luc using Roti-Fect (Carl Roth, Karlsruhe) following the manufacturer’s instructions. The cells were harvested after 24 h. Two transfected cell types resulted: CHO-CB1-CRE-luc and CHO-CB2-CRE-luc.
(§2) To test for agonistic activity at the CB1-receptor, the CHO-CB1-CRE-luc cells were stimulated for 6 h with increasing concentrations of the test compounds ([Bouaboula et al. 1997]). Forskolin (FSK), a strong CB-receptor-independent activator of adenylyl-cyclase was used at 10 µmol/L as a positive control. To investigate the antagonistic activity, the CHO-CB1-CRE-luc cells were pre-incubated for 15 min with the test compounds before stimulation for 6 h with 1 µmol/L WIN ([Zheng et al. 2013]). To investigate CB2-receptor agonistic activity, CHO-CB2-CRE-luc cells were pre-incubated for 15 min with increasing concentrations of the test substances and then for 6 h with 10 µmol/L FSK. WIN, a non-specific agonist at CB2-receptors, was used as a positive control. To confirm CB2-receptor agonistic activities of the test compounds, CHO-CB2-CRE-luc cells were pre-incubated with the specific CB2-receptor antagonist AM630 (1 µmol/L, 6-iodopravadoline; Cayman, distributed by Biozol, Hamburg) ([Ross et al. 1999]; [Zheng et al. 2013]) and then treated with increasing concentrations of the test substances.
(§3) After the stimulations and incubations, cells were lysed in a solution of 25 mmol Tris-phosphate (pH = 7.8), 8 mmol MgCl2, 1 mmol dithiothreitol (DTT), 1% Triton X-100, and 7% glycerol. The luciferase activity was measured with a Luciferase Assay Kit (Promega, Madison) according to the manufacturer’s instructions using an AutoLumat LB 9501 (Berthold Technologies, Bad Wildbad).

CB2-receptor [2] = target: T1, CB2-receptor; assay: cAMP-dependent luciferase assay in CHO-CB2-CRE-luc cells; type: cell-based
Description: as §1, §2, §3

NFAT = assay: PMA/IO-induced NFAT-luc activation in Jurkat T-cells; type: cell-based; conditions: 0.5–25 µmol/L
Description: Jurkat T-cells (10^6 cells per milliliter) were transiently transfected with plasmids that contained an NF-κB-dependent (KBF-luc) or NFAT-dependent (NFAT-luc) promotors fused to the luciferase gene using Lipofectin (Life Technologies, Carlsbad) according to the manufacturer’s instructions ([Yano et al. 1987]; [Durand et al. 1988]). Twenty-four hours after transfection, cells were stimulated for 30 min with increasing doses of the test compounds or WIN as a control (Tocris, Bristol). Then PMA (50 ng/ml)—for NFAT-luc—plus ionomycin (0.5 µg/ml) (Sigma-Aldrich, St. Louis) was added, followed by a 6 h incubation period.
as §3

primary human monocytes = assay: Anti-inflammatory effect on LPS-treated monocytes (ELISA); type: cell-based; conditions: LPS 10 ng/ml, 24 h
Description: Human peripheral blood monocytes were prepared from healthy donors who provided written informed consent at the local blood bank (University Hospital of Freiburg, Germany). Mononuclear cells were isolated by density gradient centrifugation according to standard protocol ([English and Andersen, 1974]) using lymphocyte separation medium, (PAN Biotech, Aidenbach). Cells were resuspended in RPMI-1640 medium (Invitrogen/Thermo Fisher Scientific, Karlsruhe) containing 10% human serum (Hexacell, Berlin). About 5 × 10^5 cells per milliliter were seeded in 24-well plates and incubated at 37°C and 5% CO2. The medium and the non-adherent cells were removed by washing with PBS and fresh RPMI medium, and 1% human serum was added to each well.
To test the anti-inflammatory effect of the test compounds, monocytes were incubated for 30 min with increasing doses of the test compounds. Then lipopolysaccharide (LPS) (10 ng/ml; Escherichia coli, Sigma-Aldrich, St. Louis) was added followed by a 24 h incubation period. The supernatants were removed and the levels of IL-1β, IL-6, IL-8, TNF-α, and prostaglandin E2 (PGE2) determined by enzyme-linked immunosorbent assay (ELISA) performed according to the manufacturer’s instructions (IL-1β from Hiss, Freiburg; IL-6, IL-8, and TNF-α from ImmunoTools, Friesoythe; and PGE2 from Cayman, distributed by Biozol, Hamburg). Stimulation with LPS alone was considered 100%.

RAW264.7 macrophages = assay: MTT cytotoxicity assay; type: cell-based; conditions: RAW264.7, concentrations of 5 and 10 µmol/L
Description: Cytotoxicity tests were done on CHO cells, Jurkat T-cells, or RAW264.7 macrophages using the MTT assay (Sigma-Aldrich, St. Louis) and on primary human monocytes with the alamarBlue assay (Thermo Fisher Scientific, Karlsruhe).

| SMILES | Affinity for CB1-/CB2-receptors (CB1-/CB2-receptors) | Selectivity CB2/CB1 (CB2-receptor [1]) | Effect on CB1 (CB1-receptor) | CB2-receptor agonistic activity (fold induction of CRE-luc) (CB2-receptor [2]; 15 min pre-incubation, then 10 µmol/L FSK for 6 h) | Effect on CB2 (CB2-receptor [2]; CHO-CB2-CRE-luc, summary classification) | Inhibition of PMA/IO-induced NFAT activation (NFAT) | LPS-induced IL-1β release (primary human monocytes) | LPS-induced IL-6 release (primary human monocytes) | LPS-induced IL-8 release (primary human monocytes) | LPS-induced TNF-α release (primary human monocytes) | Effect on cell viability (RAW264.7 macrophages) |
| --- | --- | --- | --- | --- | --- | --- | --- | --- | --- | --- | --- |
| C=C(C)[C@@H]1CCC(C)=C[C@H]1c1c(O)cc(CCCCC)cc1O [CBD, (-)-trans-cannabidiol] | poor affinity |  |  |  |  |  |  |  |  |  |  |
| C=C(C)[C@@H]1CCC(C)=C[C@H]1c1c(O)cc(CCC)cc1O [CBDV, (-)-trans-cannabidivarin] | poor affinity |  |  |  |  |  |  |  |  |  |  |
| C=C(C)[C@@H]1CCC(C)=C[C@H]1c1c(O)cc(CCCCC)c(C(=O)OCC(O)CO)c1O (stereo partly drawn) [GCBD (3), 2,3-dihydroxypropyl cannabidiolate] |  | 7.8 | Antagonist | dose-dependent agonistic effects | Agonist | significantly inhibited | significantly inhibited | significantly inhibited | costimulated | significantly inhibited | negative effect on cell viability |
